# Columns and labels:
# DPP IV = target: T1, DPP IV (Mus musculus, UniProt P28843); assay: DPP IV inhibitory activity in vivo: DPP IV activity in plasma of ICR mouse after single oral dose; details: oral 3 mg/kg, compared with Alogliptin and Vildagliptin (LAF237), FIG. 1-6
# T1 construct: from tissue; host or cells: plasma of ICR mouse
# Description: Animals: ICR mouse (8-10 weeks old; sex: male; 25 g-30 g of body weight, purchased from Shanghai SLAC Laboratory Animal Center).
# Meanwhile the solvent group was used as blank control. The blood was taken from orbital venous plexus of the mouse before administration, and 30, 60, 2 h, 4 h, 6 h, 8 h and […] after administration, respectively and loaded into Eppendorf tube (Qizhong Industrial (Shanghai) co., Ltd.) treated by anticoagulant. The plasma was obtained by centrifugation and DPP IV activity was determined.
# normal ICR mouse = assay: Oral glucose tolerance test (OGTT), acute hypoglycemic effect of single oral dose; type: in vivo; details: single dose 3 mg/kg by gavage, glucose 2.5 g/kg after 6 hours, FIGS. 7-10
# Description: Acute hypoglycemic effect of single dose through mouth on the normal ICR mouse
# Animal: ICR mouse (8-10 weeks old, sex: male, weight: 25-30 g, purchased from Shanghai SLAC Laboratory Animal Center).
# 1. Two days before the experiment, the food consumption was recorded and the daily food consumption of each animal was calculated;
# 2. The animals fasted overnight (⅓ of daily food consumption was provided, about 2 g);
# 3. The blood glucose was measured on the second day.
# 4. The medicament was administrated through gavage (1 mouse/min). After 6 hours, the blood glucose was measured. Glucose was administrated through gavage according to the body weight (2.5 g/kg). The blood glucose value was monitored at 30 min, 60 min, 90 min, and 120 min after administration.
# human DPP IV = target: T2, human DPP IV (Homo sapiens, UniProt P27487); assay: DPP IV activity screening (Ala-Pro-AMC fluorescence); type: biochemical
# T2 construct: extracellular fragment of protease DPP IV (aa29-766); made in house; host or cells: baculovirus expression system Bac-to-Bac
# In short: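 DPP IV activity is taken as the linear rate of fluorescence change at 460 nm. Samples are dissolved in DMSO and screened at a single concentration (e.g. 20 μg/mL). Dose-response data are fit to a variable-slope sigmoidal model with bottom and top fixed at 0 and 100.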
# [1] = target: dipeptidyl peptidase 7 (DPP 7) (Homo sapiens, UniProt Q9UHL4); assay: DPP 7 activity screening; type: biochemical; details: N.I. = No Inhibition
# In short: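 Sample dissolved in DMSO, final DMSO kept at a level not affecting activity; tested at a single concentration from preliminary screening (e.g. 20 μg/mL). Dose-response data fitted to sigmoidal variable-slope model with bottom and top fixed at 0 and 100.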
# human DPP 8 = target: T3, human DPP 8 (Homo sapiens, UniProt Q6V1X1); assay: DPP 8 activity screening (Ala-Pro-AMC fluorescence); type: biochemical; details: N.I. = No Inhibition
# T3 construct: made in house; host or cells: insect cells, baculovirus Bac-to-Bac
# In short: (§1)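 Insect-cell baculovirus-expressed human enzymes hydrolyse Ala-Pro-AMC; AMC release monitored kinetically as fluorescence rate (ex 355/em 460 nm). Primary screen at a single concentration (e.g. 20 μg/mL); dose–response fitted to variable-slope sigmoid with bottom/top fixed at 0 and 100.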
# Human DPP 9 = target: T4, Human DPP 9 (Homo sapiens, UniProt Q86TI2); assay: DPP 9 activity screening (Ala-Pro-AMC fluorescence); type: biochemical; details: N.I. = No Inhibition
# T4 construct: made in house; host or cells: insect cells, baculovirus Bac-to-Bac
# In short: as §1
# FAP = target: T5, FAP (Homo sapiens, UniProt Q12884); assay: FAP inhibition (Table 1); type: biochemical; details: N.I. = No Inhibition
# T5 sequence (Q12884 1-760): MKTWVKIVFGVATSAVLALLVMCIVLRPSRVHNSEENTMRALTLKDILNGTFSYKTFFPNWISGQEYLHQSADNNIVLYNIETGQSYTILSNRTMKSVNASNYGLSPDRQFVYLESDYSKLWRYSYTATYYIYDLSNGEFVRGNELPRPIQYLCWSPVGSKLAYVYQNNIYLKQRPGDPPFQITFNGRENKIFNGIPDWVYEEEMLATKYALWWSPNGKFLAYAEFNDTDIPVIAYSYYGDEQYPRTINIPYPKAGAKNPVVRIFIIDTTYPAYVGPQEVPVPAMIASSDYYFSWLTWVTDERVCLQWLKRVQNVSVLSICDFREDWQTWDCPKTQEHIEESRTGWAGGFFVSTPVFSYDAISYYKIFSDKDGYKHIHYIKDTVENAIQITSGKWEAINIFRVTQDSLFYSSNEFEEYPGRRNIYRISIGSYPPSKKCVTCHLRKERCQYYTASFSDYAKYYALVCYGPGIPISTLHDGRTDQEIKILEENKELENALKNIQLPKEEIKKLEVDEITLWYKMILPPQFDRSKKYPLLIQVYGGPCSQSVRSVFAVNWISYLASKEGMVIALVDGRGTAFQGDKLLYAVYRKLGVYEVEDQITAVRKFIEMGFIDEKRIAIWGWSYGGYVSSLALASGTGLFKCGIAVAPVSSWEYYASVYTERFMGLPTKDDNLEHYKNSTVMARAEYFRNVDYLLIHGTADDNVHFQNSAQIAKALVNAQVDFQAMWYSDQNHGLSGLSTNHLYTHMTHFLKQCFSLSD
# T2 sequence (P27487 29-766): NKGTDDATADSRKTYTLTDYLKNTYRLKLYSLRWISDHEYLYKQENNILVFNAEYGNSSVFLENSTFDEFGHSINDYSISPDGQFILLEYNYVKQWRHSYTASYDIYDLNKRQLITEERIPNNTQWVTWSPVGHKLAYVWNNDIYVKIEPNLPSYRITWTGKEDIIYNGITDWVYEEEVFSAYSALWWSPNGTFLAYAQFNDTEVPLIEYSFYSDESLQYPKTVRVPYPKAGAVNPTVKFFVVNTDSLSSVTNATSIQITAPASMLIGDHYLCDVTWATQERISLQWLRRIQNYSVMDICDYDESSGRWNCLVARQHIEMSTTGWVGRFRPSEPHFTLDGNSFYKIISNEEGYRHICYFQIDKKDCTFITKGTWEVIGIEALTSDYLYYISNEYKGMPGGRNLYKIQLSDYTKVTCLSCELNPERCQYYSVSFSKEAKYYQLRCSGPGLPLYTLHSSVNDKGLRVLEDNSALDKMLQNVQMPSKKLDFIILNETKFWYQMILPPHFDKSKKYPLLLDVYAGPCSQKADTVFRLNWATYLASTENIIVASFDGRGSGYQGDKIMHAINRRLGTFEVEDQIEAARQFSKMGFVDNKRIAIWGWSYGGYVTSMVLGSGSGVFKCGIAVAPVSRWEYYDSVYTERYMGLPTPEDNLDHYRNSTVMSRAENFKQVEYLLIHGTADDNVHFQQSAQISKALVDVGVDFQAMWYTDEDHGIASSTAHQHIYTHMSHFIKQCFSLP
# T4 sequence (Q86TI2 whole entry): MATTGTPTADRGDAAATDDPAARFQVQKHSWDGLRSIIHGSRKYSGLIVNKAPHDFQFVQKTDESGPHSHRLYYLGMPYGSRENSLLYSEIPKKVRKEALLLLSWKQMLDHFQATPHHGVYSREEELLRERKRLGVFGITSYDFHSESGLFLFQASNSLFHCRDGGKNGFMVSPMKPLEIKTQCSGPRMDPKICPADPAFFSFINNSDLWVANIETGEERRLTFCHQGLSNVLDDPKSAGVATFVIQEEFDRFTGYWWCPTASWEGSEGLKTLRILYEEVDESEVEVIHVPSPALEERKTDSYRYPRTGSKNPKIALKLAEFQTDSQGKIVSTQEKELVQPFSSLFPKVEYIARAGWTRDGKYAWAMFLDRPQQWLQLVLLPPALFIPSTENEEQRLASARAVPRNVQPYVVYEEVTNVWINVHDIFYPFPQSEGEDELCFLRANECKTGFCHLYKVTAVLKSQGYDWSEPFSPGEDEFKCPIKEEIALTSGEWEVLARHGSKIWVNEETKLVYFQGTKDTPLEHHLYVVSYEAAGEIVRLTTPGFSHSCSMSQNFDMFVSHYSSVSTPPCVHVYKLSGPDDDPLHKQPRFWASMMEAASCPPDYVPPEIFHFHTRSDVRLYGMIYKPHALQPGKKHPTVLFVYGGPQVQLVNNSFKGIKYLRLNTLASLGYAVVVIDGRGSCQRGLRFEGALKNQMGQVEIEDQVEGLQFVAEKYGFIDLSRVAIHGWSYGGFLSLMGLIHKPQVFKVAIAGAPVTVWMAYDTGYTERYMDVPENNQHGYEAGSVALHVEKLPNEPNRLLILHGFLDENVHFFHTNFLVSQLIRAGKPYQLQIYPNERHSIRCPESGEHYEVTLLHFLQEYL
# T3 sequence (Q6V1X1 whole entry): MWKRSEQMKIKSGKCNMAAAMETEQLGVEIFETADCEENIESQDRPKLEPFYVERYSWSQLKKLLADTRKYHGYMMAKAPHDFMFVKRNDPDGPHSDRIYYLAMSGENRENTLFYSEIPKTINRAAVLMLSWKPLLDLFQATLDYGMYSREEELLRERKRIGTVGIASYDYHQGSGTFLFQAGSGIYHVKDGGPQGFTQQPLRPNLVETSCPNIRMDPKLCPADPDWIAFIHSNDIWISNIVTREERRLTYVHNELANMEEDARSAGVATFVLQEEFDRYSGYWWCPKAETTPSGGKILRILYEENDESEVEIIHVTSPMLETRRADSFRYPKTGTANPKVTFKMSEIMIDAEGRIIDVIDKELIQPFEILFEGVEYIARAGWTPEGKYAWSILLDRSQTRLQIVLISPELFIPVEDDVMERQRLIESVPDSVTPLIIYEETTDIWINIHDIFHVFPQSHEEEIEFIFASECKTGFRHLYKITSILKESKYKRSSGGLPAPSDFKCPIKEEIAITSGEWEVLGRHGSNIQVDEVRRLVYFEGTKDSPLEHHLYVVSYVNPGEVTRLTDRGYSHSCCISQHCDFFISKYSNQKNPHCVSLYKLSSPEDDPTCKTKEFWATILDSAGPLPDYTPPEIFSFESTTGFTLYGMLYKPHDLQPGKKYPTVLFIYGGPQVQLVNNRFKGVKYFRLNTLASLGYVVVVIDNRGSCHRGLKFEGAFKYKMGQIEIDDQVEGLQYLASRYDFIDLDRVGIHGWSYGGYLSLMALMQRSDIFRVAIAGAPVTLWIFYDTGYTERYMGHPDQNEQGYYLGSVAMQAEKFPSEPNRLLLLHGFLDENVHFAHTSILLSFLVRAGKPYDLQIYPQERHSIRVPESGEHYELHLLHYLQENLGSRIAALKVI
# T1 sequence (P28843 37-760 limits assumed): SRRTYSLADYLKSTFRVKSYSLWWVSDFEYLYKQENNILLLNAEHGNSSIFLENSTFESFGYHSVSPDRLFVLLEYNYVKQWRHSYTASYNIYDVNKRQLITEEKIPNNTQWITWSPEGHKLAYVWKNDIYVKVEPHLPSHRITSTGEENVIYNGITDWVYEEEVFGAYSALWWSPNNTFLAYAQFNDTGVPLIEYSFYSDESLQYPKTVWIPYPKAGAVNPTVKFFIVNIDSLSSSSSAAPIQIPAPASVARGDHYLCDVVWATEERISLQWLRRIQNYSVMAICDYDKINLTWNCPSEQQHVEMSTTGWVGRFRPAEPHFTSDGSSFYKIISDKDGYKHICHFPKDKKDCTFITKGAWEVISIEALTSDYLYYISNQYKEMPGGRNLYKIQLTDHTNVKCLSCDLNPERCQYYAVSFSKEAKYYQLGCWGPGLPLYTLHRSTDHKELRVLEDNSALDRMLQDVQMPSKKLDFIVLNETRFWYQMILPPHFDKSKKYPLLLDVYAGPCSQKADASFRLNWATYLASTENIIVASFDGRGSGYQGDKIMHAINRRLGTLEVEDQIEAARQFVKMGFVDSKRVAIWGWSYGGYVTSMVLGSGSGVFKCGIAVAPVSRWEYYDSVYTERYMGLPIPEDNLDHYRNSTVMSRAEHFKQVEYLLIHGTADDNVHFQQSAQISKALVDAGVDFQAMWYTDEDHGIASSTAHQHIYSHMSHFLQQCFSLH
Structure (SMILES),DPP IV activity of ICR mouse plasma after single dose (given as hypoglycemic ability in vivo) (DPP IV),IC50 (human DPP IV) [µM],IC50 (human DPP 8) [µM],IC50 (FAP) [µM],DPP 7 IC50 [1],IC50 (Human DPP 9) [µM],other results
N#Cc1ccccc1Cn1c(N2CCC[C@@H](N)C2)nc2cc(CO)sc2c1=O [DC291408],"comparable to that of Alogliptin (3 mg), and better than that of Vildagliptin (LAF237, 15 mg)",,,,,,
N#Cc1ccccc1Cn1c(N2CCC[C@@H](N)C2)nc2c(C#N)csc2c1=O [DC291036],,,,,,,"hypoglycemic ability in vivo, oral glucose tolerance test (normal ICR mouse): comparable to that of Alogliptin"
N#Cc1ccccc1Cn1c(N2CCC[C@@H](N)C2)nc2cc(COCc3ccccc3)sc2c1=O [DC291402],"comparable to that of Alogliptin (3 mg), and better than that of Vildagliptin (LAF237, 15 mg)",,,,,,"hypoglycemic ability in vivo, oral glucose tolerance test (normal ICR mouse): comparable to that of Alogliptin"
N#Cc1ccccc1Cn1c(N2CCC[C@@H](N)C2)nc2c(CN3CCOCC3)csc2c1=O [DC291005],"comparable to that of Alogliptin (3 mg), and better than that of Vildagliptin (LAF237, 15 mg)",,,,,,
CCOC(=O)CNC(=O)c1csc2c(=O)n(Cc3ccccc3C#N)c(N3CCC[C@@H](N)C3)nc12 [DC291010],"comparable to that of Alogliptin (3 mg), and better than that of Vildagliptin (LAF237, 15 mg)",,,,,,
N#Cc1ccccc1Cn1c(N2CCC[C@@H](N)C2)nc2cc(C(=O)N3CCCCC3)sc2c1=O [DC291422],"comparable to that of Alogliptin (3 mg), and better than that of Vildagliptin (LAF237, 15 mg)",,,,,,
N#Cc1ccccc1Cn1c(N2CCC[C@@H](N)C2)nc2c(C(=O)NC3CCOCC3)csc2c1=O [DC291034],,,,,,,"hypoglycemic ability in vivo, oral glucose tolerance test (normal ICR mouse): comparable to that of Alogliptin"
"CCCCNC(=O)c1csc2c(=O)n(Cc3ccccc3C#N)c(N3CCC[C@@H](N)C3)nc12 [Compound 77, (R)-2-(3-aminopiperidln-1-yl)-N-butyl-3-(2-cyanobenzyl)-4-oxo-3,4-dihydrothieno[3,2-d]pyrimidine-7-carboxamide]",,0.0111,49.4,45.2,,,IC50 [1]: 30 µM; DPP 9 IC50 (Human DPP 9): N.I.
"COCCNC(=O)c1csc2c(=O)n(Cc3ccccc3C#N)c(N3CCC[C@@H](N)C3)nc12 [Compound 74, (R)-2-(3-aminopiperidin-1-yl)-3-(2-cyanobenzyl)-N-(2-methoxyethyl)-4-oxo-3,4-dihydrothieno[3,2-d]pyrimidine-7-carboxamide]",,0.0106,18.4,30.6,N.I.,92.9,
"N#Cc1ccccc1Cn1c(N2CCC[C@@H](N)C2)nc2cc(CO)sc2c1=O [Compound 28, (R)-2-((2-(3-aminopiperidin-1-yl)-6-(hydroxymethyl)-4-oxothieno[3,2-d]-pyrimidin-3(4H)-yl)methyl)benzonitrile]",,0.0102,27,85.9,N.I.,35.2,
"COC(=O)[C@H](Cc1ccccc1)NC(=O)c1cc2nc(N3CCC[C@@H](N)C3)n(Cc3ccccc3C#N)c(=O)c2s1 [Compound 102, (S)-methyl 2-(2-((R)-3-aminopiperidin-1-yl)-3-(2-cyanobenzyl)-4-oxo-3,4-dihydrothieno[3,2-d]pyrimidine-6-carboxamido)-3-phenylpropanoate]",,0.0384,27.8,68.5,N.I.,32.6,
"N#Cc1ccccc1Cn1c(N2CCC[C@@H](N)C2)nc2c(C(N)=O)csc2c1=O [Compound 45, (R)-2-(3-aminopiperidin-1-yl)-3-(2-cyanobenzyl)-4-oxo-3,4-dihydrothieno-[3,2-d]pyrimidine-7-carboxamide]",,0.00357,,,N.I.,,DPP 8 IC50 (human DPP 8): N.I.; DPP 9 IC50 (Human DPP 9): N.I.; FAP IC50 (FAP): N.I.
"N#Cc1ccccc1Cn1c(N2CCC[C@@H](N)C2)nc2cc(C(=O)N3CCCCC3)sc2c1=O [Compound 108, (R)-2-((2-(3-aminopiperidin-1-yl)-4-oxo-6-(piperidine-1-carbonyl)thieno-[3,2-d]pyrimidin-3(4H)-yl)methyl)-benzonitrile]",,0.0118,15.1,27,N.I.,111,
CC(=O)OCc1cc2nc(N3CCC[C@@H](N)C3)n(Cc3ccccc3C#N)c(=O)c2s1 [DC291405],"comparable to that of Alogliptin (3 mg), and better than that of Vildagliptin (LAF237, 15 mg)",,,,,,
CCOC(=O)CCNC(=O)c1csc2c(=O)n(Cc3ccccc3C#N)c(N3CCC[C@@H](N)C3)nc12 [DC291041],"comparable to that of Alogliptin (3 mg), and better than that of Vildagliptin (LAF237, 15 mg)",,,,,,
"Cc1ccc(CNC(=O)c2csc3c(=O)n(Cc4ccccc4C#N)c(N4CCC[C@@H](N)C4)nc23)cc1 [Compound 64, (R)-2-(3-aminopiperidin-1-yl)-3-(2-cyanobenzyl)-N-(4-methylbenzyl)-4-oxo-3,4-dihydrothieno[3,2-d]-pyrimidine-7-carboxamide]",,0.0332,5.81,9.38,,39.7,IC50 [1]: 52 µM
"CNC(=O)c1cc2nc(N3CCC[C@@H](N)C3)n(Cc3ccccc3C#N)c(=O)c2s1 [Compound 104, (R)-2-(3-aminopiperidin-1-yl)-3-(2-cyanobenzyl)-N-methyl-4-oxo-3,4-dihydrothieno[3,2-d]pyrimidine-6-carboxamide]",,0.0171,,239,N.I.,254,DPP 8 IC50 (human DPP 8): N.I.
"N#Cc1ccccc1Cn1c(N2CCC[C@@H](N)C2)nc2cc(C(=O)N3CCOCC3)sc2c1=O [Compound 118, (R)-2-((2-(3-aminopiperidin-1-yl)-6-(morpholine-4-carbonyl)-4-oxothieno-[3,2-d]pyrimidin-3(4H)-yl)methyl)-benzonitrile]",,0.0185,83.6,80.2,N.I.,,DPP 9 IC50 (Human DPP 9): N.I.
"N#Cc1ccccc1Cn1c(N2CCC[C@@H](N)C2)nc2c(C(=O)N3CCOCC3)csc2c1=O [Compound 69, (R)-2-((2-(3-aminopiperidin-1-yl)-7-(morpholine-4-carbonyl)-4-oxothieno-[3,2-d]pyrimidin-3(4H)-yl)methyl)-benzonitrile]",,0.0321,,,N.I.,,DPP 8 IC50 (human DPP 8): N.I.; DPP 9 IC50 (Human DPP 9): N.I.; FAP IC50 (FAP): N.I.

# From US9045491B2, “Thienyl [3,2-D] pyrimidin-4-one compounds, preparation method, pharmaceutical compositions and use thereof” (SHANGHAI INSTITUTE OF MATERIA MEDICA, CHINESE ACADEMY OF …, priority 2011, dated 2015)
